Source: US11730712B2, “Functionalized long-chain hydrocarbon mono- and di-carboxylic acids and derivatives thereof, and their use for the prevention or treatment of disease” (ESPERVITA THERAPEUTICS, INC., priority 2021, dated 2023)

How the values were obtained:
[1] = test system: mouse primary hepatocytes; test: 14C-acetate incorporation into total lipids in primary mouse hepatocytes; format: cell-based; conditions: 4-hour period; for IC50: Hepatocyte, read-out: IC50 in μM, inhibition of 14C-acetate incorporation in total lipids
Method: After perfusion, collagen digested liver cells were re-suspended in William's E media (11 mM glucose) (Gibco) supplemented with 10% fetal bovine serum (FBS) (Gibco), 2 mM L-glutamine (Gibco) and 1% Antibiotic-Antimycotic (Gibco) mixture and seeded in white opaque 96-well plates. On the following day, the cells were serum-starved for 2 hours, then treated with 0 μM, 0.1 μM, 0.3 μM, 0.5 μM, 1 μM, 3 μM, 10 μM, and 100 μM of Compound I-32, Compound I-1, or Compound III-1 or Reference Compound (e.g., Compounds A-E and bempedoic acid) in the presence of ^14C-Acetate (1 μCi/ml, PerkinElmer). Each of Compound I-32, Compound I-1, Compound III-1, and Reference Compound was solubilized in 100% DMSO to a final concentration of 100 mM stock solution. In the experimental condition, the stock solution was diluted in serum free media (William's E media (11 mM glucose) (Gibco), 2 mM L-glutamine (Gibco) and 1% Anti biotic-Antimycotic) to yield the desired concentration of each compound. […] After 4 hours of treatment, the plates were washed two times with PBS (×1) and 100 μL microscint fluid (Microscint O, part #601361) was added in each well. Plates were wrapped with aluminum foil and were shaken at 250 rpm for 2 h. After 2 h of shaking, ^14C incorporation into lipid was determined by liquid scintillation counting using a TopCount NXT Microplate Scintillation and Luminescence Counter (Perkin Elmer).
The effects of Compound I-32. Compound I-1, and Compound III-1 on mouse primary hepatocyte lipogenesis are represented in Table 1. Each Compound was assayed at a concentration of 0 μM (vehicle control), 0.1 μM, 0.3 μM, 0.5 μM, 1 μM, 3 μM, 10 μM, and 100 μM, unless otherwise noted. Statistically significant inhibition was determined by one-way ANOVA and Dennett's post hoc test where appropriate. […] IC50 values were determined by nonlinear regression. All statistical analyses were carried out using GraphPad Prism 8 software. A p-value of less than or equal 0.05 was considered significant.

[2] = target: T1, Human ACC1 (Homo sapiens, UniProt Q13085); test: ACC1 enzymatic assay (ADP-Glo); format: biochemical; conditions: recombinant human ACC1 5 nM, 10 μM ATP, 10 μM acetyl CoA; Run 1-3; read-out: Compound IC50 (M) ACC1
T1 construct: FLAG (C); His (C); purchased BPS Biosciences 50202; host or cells: Baculovirus infected Sf9 cells
Method: (§1) Human ACC1 (Cat#50202 Lot #120830) and ACC2 (Cat #50201 Lot #160217) were obtained from BPS Biosciences, San Diego, Calif. 92121. Human ACC1 had C-terminal flag and His-tags with a MW of 270 KDa after purification from Baculovirus infected Sf9 cell expression system and came as a solution in 50 mM Tris-HCl, pH 8.0, 500 mM NaCl, 10% glycerol, 1 mM DTT, 100 μg/ml FLAG peptide with 70% purity. The stock concentration was 0.25 mg/ml corresponding to 0.926 μM. Human ACC2 was also purified from Baculovirus infected Sf9 expression system. […] The stock concentration was 0.1 mg/ml corresponding to 0.36 μM. The assay buffer for measuring the activity of ACC contained: 30 mM HEPES (pH 7.4), 2 mM MgCl2, 0.01% Brij35, 2 mM DTT, 1% DMSO (solvent for compound). For ACC1 and ACC2 assays, the following concentrations of substrate and cofactors were used: 12 mM NaHCO3, 10 μM acetyl CoA, 10 μM ATP, and 2 mM K-citrate. The recombinant human enzyme was used at 5 nM for ACC1 and 1 nM for ACC2. In brief, enzyme alone in the above buffer without substrate was used for background. All test materials were dissolved in 100% DMSO using acoustic technology (Echo550). The prepared solution was preincubated for 15 min followed by the addition of 5 μL/well of ADP standard. ATP was then added to start the reaction. The assay contents were spun and briefly shaken followed by incubation at room temperature for 1 h. At the end of completion of assay, 5 μL of ADP-Glo was added to each well to stop the reaction. The contents were mixed, spun and incubated at room temperature for 40 min followed by the addition of 10 μL/well of ADP detection reagent. The contents were spun, mixed and covered with plastic to measure luminescence. […] The light generated, measured in a luminometer, correlates to the amount of ADP generated in the ACC assay, which is indicative of ACC activity.
(§2) The enzyme concentrations for ACC1 and ACC2 were 5 nM and 1 nM, respectively.
Data represent nM or μM ADP produced, % Activity (relative to no inhibitor controls), and curve fits were performed by GraphPad Prism software. The IC50 concentration-response curves were generated for both the ACC1 and ACC2 assays using recombinant human ACC.

[3] = target: T2, Human ACC2 (Homo sapiens, UniProt O00763); test: ACC2 enzymatic assay (ADP-Glo); format: biochemical; conditions: recombinant human ACC2 1 nM, 10 μM ATP, 10 μM acetyl CoA; Run 1-3; read-out: Compound IC50 (M) ACC2
T2 construct: FLAG (C); His (C); purchased BPS Biosciences 50201; host or cells: Baculovirus infected Sf9 cells
T2 sequence (O00763 whole entry): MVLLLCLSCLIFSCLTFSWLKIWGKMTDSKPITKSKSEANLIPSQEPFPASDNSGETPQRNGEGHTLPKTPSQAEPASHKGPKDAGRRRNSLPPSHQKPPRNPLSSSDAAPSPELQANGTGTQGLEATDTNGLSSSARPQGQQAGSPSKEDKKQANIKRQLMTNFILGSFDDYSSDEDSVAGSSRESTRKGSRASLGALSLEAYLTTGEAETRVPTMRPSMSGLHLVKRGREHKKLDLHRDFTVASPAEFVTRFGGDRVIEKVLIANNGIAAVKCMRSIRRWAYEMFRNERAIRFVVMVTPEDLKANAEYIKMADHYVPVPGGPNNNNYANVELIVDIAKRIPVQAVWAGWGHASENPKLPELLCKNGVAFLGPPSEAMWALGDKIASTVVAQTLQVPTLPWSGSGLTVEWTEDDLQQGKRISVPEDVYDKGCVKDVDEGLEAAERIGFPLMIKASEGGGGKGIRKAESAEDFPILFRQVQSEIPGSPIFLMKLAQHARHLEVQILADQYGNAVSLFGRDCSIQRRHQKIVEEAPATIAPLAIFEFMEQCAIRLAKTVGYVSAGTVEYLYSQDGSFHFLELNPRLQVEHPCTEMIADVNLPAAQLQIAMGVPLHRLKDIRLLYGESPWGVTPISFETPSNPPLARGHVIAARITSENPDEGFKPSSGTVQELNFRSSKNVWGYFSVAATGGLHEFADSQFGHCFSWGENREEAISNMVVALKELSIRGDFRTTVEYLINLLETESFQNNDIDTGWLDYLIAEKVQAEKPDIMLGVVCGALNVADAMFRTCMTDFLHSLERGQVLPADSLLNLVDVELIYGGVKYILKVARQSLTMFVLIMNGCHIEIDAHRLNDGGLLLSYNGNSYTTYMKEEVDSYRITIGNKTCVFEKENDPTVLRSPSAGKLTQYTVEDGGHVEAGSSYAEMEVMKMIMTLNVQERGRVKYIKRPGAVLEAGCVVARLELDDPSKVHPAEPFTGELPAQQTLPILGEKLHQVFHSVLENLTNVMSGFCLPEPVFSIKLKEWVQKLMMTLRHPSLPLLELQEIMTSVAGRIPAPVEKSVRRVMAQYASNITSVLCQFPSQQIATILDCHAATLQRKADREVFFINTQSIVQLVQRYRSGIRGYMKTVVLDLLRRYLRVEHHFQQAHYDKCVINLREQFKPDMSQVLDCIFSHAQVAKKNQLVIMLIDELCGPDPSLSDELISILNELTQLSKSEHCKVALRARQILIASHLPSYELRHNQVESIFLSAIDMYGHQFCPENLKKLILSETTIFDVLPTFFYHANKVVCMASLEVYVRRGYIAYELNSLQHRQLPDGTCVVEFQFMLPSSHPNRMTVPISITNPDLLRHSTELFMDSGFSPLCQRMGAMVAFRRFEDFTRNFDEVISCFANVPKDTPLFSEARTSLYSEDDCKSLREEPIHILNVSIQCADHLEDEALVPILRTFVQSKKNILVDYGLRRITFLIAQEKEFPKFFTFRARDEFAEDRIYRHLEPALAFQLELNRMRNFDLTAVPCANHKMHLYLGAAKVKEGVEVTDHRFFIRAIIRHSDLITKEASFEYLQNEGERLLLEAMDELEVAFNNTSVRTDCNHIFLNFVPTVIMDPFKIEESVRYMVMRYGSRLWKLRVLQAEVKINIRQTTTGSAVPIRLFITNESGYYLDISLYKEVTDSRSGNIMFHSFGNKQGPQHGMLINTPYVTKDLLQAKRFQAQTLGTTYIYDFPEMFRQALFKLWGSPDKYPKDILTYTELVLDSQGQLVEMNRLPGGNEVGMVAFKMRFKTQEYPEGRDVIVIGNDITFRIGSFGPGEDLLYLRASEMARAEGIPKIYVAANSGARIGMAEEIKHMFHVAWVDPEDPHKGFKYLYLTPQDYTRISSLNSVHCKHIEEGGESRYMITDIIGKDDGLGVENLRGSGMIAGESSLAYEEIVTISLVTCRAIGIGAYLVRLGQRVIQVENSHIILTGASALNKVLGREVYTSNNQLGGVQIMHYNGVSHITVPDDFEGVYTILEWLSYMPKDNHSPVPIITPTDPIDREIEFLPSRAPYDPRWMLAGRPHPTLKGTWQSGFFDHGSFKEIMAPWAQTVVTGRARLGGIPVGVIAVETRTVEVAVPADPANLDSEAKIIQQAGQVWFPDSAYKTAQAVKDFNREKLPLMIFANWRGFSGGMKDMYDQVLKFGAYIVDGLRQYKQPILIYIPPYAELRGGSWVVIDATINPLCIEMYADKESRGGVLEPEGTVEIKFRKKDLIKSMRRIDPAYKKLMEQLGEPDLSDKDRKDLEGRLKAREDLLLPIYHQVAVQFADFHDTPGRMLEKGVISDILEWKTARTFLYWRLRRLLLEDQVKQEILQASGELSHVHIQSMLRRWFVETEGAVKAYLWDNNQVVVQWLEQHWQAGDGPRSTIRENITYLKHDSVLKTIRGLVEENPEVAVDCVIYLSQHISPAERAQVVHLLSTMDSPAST
Method: as §1, §2
Data represent nM or μM ADP produced, % Activity (relative to no inhibitor controls), and curve fits were performed by GraphPad Prism software. […]

[4] = test system: Acyl-CoA synthetase activity in rat liver microsomes; test: Synthesis of CoA derivatives in rat liver microsomes (LCMS); conditions: 1 mM substrate, 30 min sample vs 0 min
Method: Prior to the experiment a 1 mM working stock was created in primary hepatocyte media which was used to create the final dilution series of 0 (vehicle), 0.3, 1, 3, 10, and 30 μM. The final concentration of DMSO in all samples was <1%.
For initial validation of ACS activity using palmitate, 14C-palmitate was added (0.5 μCi/ml). Each sample was equilibrated at 37° C. while shaking for 10 min before the reaction was initiated by the addition of 0.04 mg of rat microsomal preparation (ThermoFisher Scientific. Cat #RTM-CPL, Lot #RT060-A) followed by incubation for 1, 3, 10, or 30 mins. Time 0 sample with no added microsomes was used as a control. The reaction was stopped by immediately placing the reaction tube on ice followed by the rapid addition of the reaction mixture to 2.25 ml ice-cold isopropanol/heptane/2M-sulfuric acid (40:10:1, vol/vol) in a 5 ml glass vial. […] For studies that involved measurement of 14C Palmitoyl-CoA formation, 200 μl of the lower aqueous phase was added to the 5 ml of scintillation fluid and the number of DPMs were determined by liquid scintillation counting for 5 minutes using a LS6500 Liquid Scintillation Counter (Beckman Coulter). […]
The reaction products were ionized by electrospray ion source (ESI) in positive mode. […] The resulting mass spectra were analyzed using the Xcalibur 2.1 Qualitative software package. […]

[5] = test system: Hep3B human hepatocarcinoma cells; test: Cell proliferation assay (presto blue, 72 h); format: cell-based; conditions: Homo sapiens, Hep3B, 72 h; read-out: Hep3B (IC50), anti-proliferation activity
Method: (§3) Cell cultures. Hep3B (ATCC) and Hepa1-6 (ATCC) cells were seeded in 96-well plates at a density of 3000 cells/well with complete media. On day 2, media in each well was aspirated and replaced with 100 μl of fresh complete media and cells were treated with or without Compound I-1, Compound I-32, Compound I1-84, and Compound I-85, in a concentration dependent manner. Then, cells were incubated in an incubator for 72 h. On day 5, 10 μl of presto blue (Invitrogen, cat #A13261) cell viability reagent was added in each 96-well plate and incubated at 37° C. for 1-2 h. After incubation, fluorescence was measured with an excitation/emission wavelength of 560/590 nm.
(§4) Proliferation assay. Hep3B (ATCC) and Hepa1-6 (ATCC) cells were seeded in 96-well plates at a density of 3000 cells/well with complete media. On day 2, media in each well was aspirated and replaced with 100 μl of fresh complete media and cells were treated with/without testing compounds in a concentration dependent manner. Then, cells were incubated in an incubator for 72 h. On day 5, 10 μl of presto blue (Invitrogen, cat #A13261) cell viability reagent was added in each 96-well plate and incubated at 37° C. for 1-2 h. After incubation, fluorescence was measured with an excitation/emission wavelength of 560/590 nm. Anti-proliferative combination effects of Compound I-1 or Compound I-32 and regorafenib were determined in Hep3B and Hepa1-6 cells. Drug combination interaction was determined by the Chou-Talalay method (23), which is based on well-known equations for different reaction sequences and mechanisms, and different types of inhibition. These equations provide the theoretical basis for the combination index (CI)-isobologram equation that allows quantitative determination of drug interactions, where CI<1, =1, and >1 indicate synergism, additive effect, and antagonism, respectively. CI is calculated based on in vitro measurements implemented in the Compusyn software (www.combosyn.com), a platform for drug combinations pharmacodynamics with automated simulations. The software calculates CI based on the Fractional Inhibition (Fa), which is the potency expressed by the average effect values for each drug concentrations as determined by in vitro experiments. The dose-effect data entries are utilized for automated computerized analysis by the Compusyn software.
(§5) Data entered was obtained by in vitro experiments performed as follows: Hep3B or Hepa 1-6 cells were plated in a 96-well format and cell proliferation rates were determined as described above. Cells were treated with 5 doses of each test agent alone at the following concentrations: compounds of the invention dosed at 1, 5, 10, 50, or 100 μM for both Hep3B and Hepa1-6 cells, regorafenib dosed at 0.015, 0.075, 0.15, 0.75, and 1.5 μM for Hep3B cells or 0.05, 0.25, 0.5, 2.5, 5 μM for Hepa 1-6 cells. […]. Data are shown as Fa-CI plots where CI is the combination index and Fa is fractional inhibition. Results were indicated as mean±standard deviation (SD). All bar diagrams and line graphs were prepared using Graph Pad Prism 8 software. Drug synergy was calculated using the CompuSyn software.
(§6) Methods: Hep3B cells (supplied by ATCC) and Hepa1-6 cells (supplied by ATCC) were seeded in 96-well plates at a density of 3000 cells/well with complete media. On day 2, the media in each well was aspirated and replaced with 100 μL of fresh complete media, and the cells were treated in a concentration dependent manner with either Compound I-1, Compound I-32, Compound I-84, Compound I-85, sorafenib, lenvatinib, Compound I-1 in combination with sorafenib. Compound I-1 in combination with lenvatinib, Compound I-32 in combination with sorafenib, or Compound I-32 in combination with lenvatinib. The cells were then incubated in an incubator at 37° C. for 72 h. On day 5, 10 μL of presto blue (Invitrogen, cat #A13261) cell viability reagent was added to each 96-well plate and incubated at 37° C. for 1-2 h. […]

[6] = test system: Hepa1-6 murine hepatoma cells; test: Cell proliferation assay (presto blue, 72 h); format: cell-based, mouse; conditions: Mus musculus, Hepa1-6, 72 h; read-out: Hepa1-6 (IC50), anti-proliferation activity
Method: as §3, §4, §5, §6

[7] = test system: Hep3B human hepatocarcinoma cells; test: Colony formation assay (clonogenic survival, 7 days); format: cell-based; conditions: 168 h, read-out: Hep3B (IC50), anti-clonogenic activity
Method: (§7) Colony formation assay. Hep3B and Hepa1-6 cells were seeded in 12-well plates at a cell density of 1000 and 500 cells/well, respectively. On day 2, media in each well was aspirated and replaced with 1000 μl of fresh complete media and cells were treated with or without the respective drugs in an increasing concentration followed by the incubation of the cells for 7 days in an incubator.
(§8) On day 9, the media in each well was aspirated and cells were fixed with 10% formalin (500 μl) for 10 minutes at room temperature. Formalin was aspirated and the plates were washed with 1×PBS and stained with crystal violet for another 10 minutes. After 10 minutes of staining, crystal violet was […] the cells, rinsed with tap water for three times and the plates were dried overnight. Next day, colonies (>50 cells) were counted and analyzed.
(§9) Statistical tests. Results were indicated as mean±standard deviation (SD). All line graphs were prepared using Graph Pad Prism 8 software. Proliferation and clonogenics IC50 values were calculated using a non-linear regression model in Graph pad Prism 8.

[8] = test system: Hepa1-6 murine hepatoma cells; test: as above; format: cell-based; conditions: Mus musculus, Hepa1-6, 168 h, read-out: Hepa1-6 (IC50), anti-clonogenic activity
Method: as §7, §8, §9

SMILES: CC(C)(CO)CCCCC(=O)CCCCC(C)(C)CO [A]
- IC50 [1]: 73.2 µM

SMILES: CC(C)(CCCCCC(O)CCCCCC(C)(C)C(=O)O)C(=O)O [BA, Bempedoic acid]
- IC50 [1]: 0.68 µM

SMILES: CC(C)(CCCCC(=O)CCCCC(C)(C)C(=O)O)C(=O)O [B]
- % change from control at 100 μM ± SEM(n), 14C-acetate incorporation in total lipids [1]: −69 ± 2.3 (n = 4) %
- IC50 [1]: 25.6 µM

SMILES: O=C(c1c2ccccc2cc2ccccc12)N1CCC(N2CCC[C@@H](C(=O)N3CCOCC3)C2)CC1 [CP 640186, reference compound]
- IC50 [2]: 2.14e-06 M
- IC50 [3]: 7.81e-08 M

SMILES: CC(C)(CCCCCC(=O)CCCCCC(C)(C)C(=O)O)C(=O)O [C]
- IC50 [1]: 0.46 µM

SMILES: CC(C)(CCCc1ccccc1CCCC(C)(C)C(=O)O)C(=O)O [Compound I-61, 5-[2-(4-Carboxy-4-methylpentyl)-phenyl]-2,2-dimethylpentanoic acid]
- % change from control at 100 μM ± SEM(n), 14C-acetate incorporation in total lipids [1]: +44 ± 8.1 (n = 4) %

SMILES: CC(C)(CCCc1ccccc1CCCC(C)(C)C(=O)SCCNC(=O)CCNC(=O)[C@H](O)C(C)(C)COP(=O)(O)OP(=O)(O)OC[C@H]1O[C@@H](n2cnc3c(N)ncnc32)[C@H](O)[C@@H]1OP(=O)(O)O)C(=O)O [Compound I-61-CoA, 5-[2-(4-Carboxy-4-methylpentyl)-phenyl]-2,2-dimethylpentanoic acid Coenzyme A ester]
- formation of the CoA derivative, detection by LCMS [4]: could not be confirmed using fragmentation analysis

SMILES: CC(C)(CCCCc1ccc(CCCCC(C)(C)CC(=O)O)cc1)CC(=O)O [Compound I-84, 7,7′-(1,4-phenylene)bis(3,3-dimethylheptanoic acid)]
- IC50 [5]: > 100 µM
- IC50 [6]: > 100 µM
- IC50 [7]: 50.1 µM
- IC50 [8]: 64.9 µM

SMILES: CC(C)(CCCCc1cccc(CCCCC(C)(C)CC(=O)O)c1)CC(=O)O [Compound I-85, 7,7′-(1,3-phenylene)bis(3,3-dimethylheptanoic acid)]
- IC50 [5]: > 100 µM
- IC50 [6]: > 100 µM
- IC50 [7]: 49.1 µM
- IC50 [8]: 61 µM

SMILES: CC(C)(CO)CCCCCC(=O)CCCCCC(C)(C)CO [D]
- IC50 [1]: 5.39 µM

SMILES: CC(C)(CCCCCCC(=O)CCCCCCC(C)(C)C(=O)O)C(=O)O [E]
- IC50 [1]: 0.35 µM

SMILES: CC(C)(CCCCCCCCCCCC(C)(C)C(=O)O)C(=O)O [F]
- IC50 [1]: < 0.3 µM

SMILES: CC(C)(CCCc1ccc(CCCC(C)(C)C(=O)O)cc1)C(=O)O [III-1, 5,5′-(1,4-phenylene)bis(2,2-dimethylpentanoic acid)]
- IC50 [1]: 27.7 µM
